Earlier results on 1 compound are cited in patent US20030152481A1 (priority 2002, published 2003).

For the series the following is noted: rat, in vivo.

With `OCCc1ccccc1` [2-phenylethanol], the “oral LD50” value was 1790 mg/kg.
